Laboratory results reported in PubChem BioAssay (NCI).
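1) Cells in 96-well plates. 2) Compound, 48 h, 5 concentrations. 3) Linear interpolation between surrounding doses. 4) Unreached endpoint = highest concentration. Abbreviation: GI50, concentration required for 50% inhibition of growth. TGI: concentration producing complete growth inhibition.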

Key:
Assay in all cases: DTP human tumour cell line panel, 48 h
786-0 renal = system: 786-0 renal
A498 renal = system: A498 renal
A549 NSCLC = system: A549 NSCLC
ACHN renal = system: ACHN renal
BT-549 breast = system: BT-549 breast
CAKI-1 renal = system: CAKI-1 renal
CCRF-CEM leukemia = system: CCRF-CEM leukemia
COLO 205 colon = system: COLO 205 colon
DU-145 prostate = system: DU-145 prostate
EKVX NSCLC = system: EKVX NSCLC
HCC-2998 colon = system: HCC-2998 colon
HCT-116 colon = system: HCT-116 colon
HCT-15 colon = system: HCT-15 colon
HL-60(TB) leukemia = system: HL-60(TB) leukemia
HOP-62 NSCLC = system: HOP-62 NSCLC
HOP-92 NSCLC = system: HOP-92 NSCLC
HS 578T breast = system: HS 578T breast
HT29 colon = system: HT29 colon
IGROV1 ovarian = system: IGROV1 ovarian
K-562 leukemia = system: K-562 leukemia
KM12 colon = system: KM12 colon
LOX IMVI melanoma = system: LOX IMVI melanoma
M14 melanoma = system: M14 melanoma
MALME-3M melanoma = system: MALME-3M melanoma
MCF7 breast = system: MCF7 breast
MDA-MB-231 breast = system: MDA-MB-231 breast
MDA-MB-435 = system: MDA-MB-435
MDA-MB-468 breast = system: MDA-MB-468 breast
MOLT-4 leukemia = system: MOLT-4 leukemia
NCI-H226 lung = system: NCI-H226 lung
NCI-H23 lung = system: NCI-H23 lung
NCI-H460 lung = system: NCI-H460 lung
NCI-H522 lung = system: NCI-H522 lung
NCI/ADR-RES ovarian = system: NCI/ADR-RES ovarian
OVCAR-3 ovarian = system: OVCAR-3 ovarian
OVCAR-4 ovarian = system: OVCAR-4 ovarian
OVCAR-5 ovarian = system: OVCAR-5 ovarian
OVCAR-8 ovarian = system: OVCAR-8 ovarian
PC-3 prostate = system: PC-3 prostate
RPMI-8226 leukemia = system: RPMI-8226 leukemia
RXF 393 renal = system: RXF 393 renal
SF-268 CNS = system: SF-268 CNS
SF-295 CNS = system: SF-295 CNS
SF-539 CNS = system: SF-539 CNS
SK-MEL-2 melanoma = system: SK-MEL-2 melanoma
SK-MEL-28 melanoma = system: SK-MEL-28 melanoma
SK-MEL-5 melanoma = system: SK-MEL-5 melanoma
SK-OV-3 ovarian = system: SK-OV-3 ovarian
SN12C renal = system: SN12C renal
SNB-19 CNS = system: SNB-19 CNS
SNB-75 CNS = system: SNB-75 CNS
SR leukemia = system: SR leukemia
SW-620 colon = system: SW-620 colon
T-47D breast = system: T-47D breast
TK-10 renal = system: TK-10 renal
U251 CNS = system: U251 CNS
UACC-257 melanoma = system: UACC-257 melanoma
UACC-62 melanoma = system: UACC-62 melanoma
UO-31 renal = system: UO-31 renal

O=c1[nH]c2ccccc2cc1CSc1ccc(Nc2nccc(-c3ccc(Cl)cc3)n2)cc1
GI50 (786-0 renal): 1160 nM | TGI (786-0 renal): 2550 nM | GI50 (A498 renal): 1230 nM | TGI (A498 renal): 2600 nM | GI50 (A549 NSCLC): 1460 nM | TGI (A549 NSCLC): 3500 nM | GI50 (ACHN renal): 744 nM | TGI (ACHN renal): 2180 nM | GI50 (BT-549 breast): 2160 nM | TGI (BT-549 breast): 6980 nM | GI50 (CAKI-1 renal): 1170 nM | TGI (CAKI-1 renal): 2730 nM | GI50 (CCRF-CEM leukemia): 2930 nM | TGI (CCRF-CEM leukemia): 23200 nM | GI50 (COLO 205 colon): 2640 nM | TGI (COLO 205 colon): 25000 nM | GI50 (DU-145 prostate): 1520 nM | TGI (DU-145 prostate): 9160 nM | GI50 (EKVX NSCLC): 1420 nM | TGI (EKVX NSCLC): 4770 nM | GI50 (HCC-2998 colon): 4050 nM | TGI (HCC-2998 colon): 25300 nM | GI50 (HCT-116 colon): 644 nM | TGI (HCT-116 colon): 3650 nM | GI50 (HCT-15 colon): 1020 nM | TGI (HCT-15 colon): 15200 nM | GI50 (HL-60(TB) leukemia): 43200 nM | TGI (HL-60(TB) leukemia): > 100000 nM | GI50 (HOP-62 NSCLC): 1720 nM | TGI (HOP-62 NSCLC): 3450 nM | GI50 (HOP-92 NSCLC): 1110 nM | TGI (HOP-92 NSCLC): 2800 nM | GI50 (HS 578T breast): 621 nM | TGI (HS 578T breast): 3450 nM | GI50 (HT29 colon): 917 nM | TGI (HT29 colon): 5520 nM | GI50 (IGROV1 ovarian): 3710 nM | TGI (IGROV1 ovarian): 14300 nM | GI50 (K-562 leukemia): 2570 nM | TGI (K-562 leukemia): 18300 nM | GI50 (KM12 colon): 11000 nM | TGI (KM12 colon): > 100000 nM | GI50 (LOX IMVI melanoma): 1830 nM | TGI (LOX IMVI melanoma): 5240 nM | GI50 (M14 melanoma): 4900 nM | TGI (M14 melanoma): 30900 nM | GI50 (MALME-3M melanoma): 1810 nM | TGI (MALME-3M melanoma): 6090 nM | GI50 (MCF7 breast): 2590 nM | TGI (MCF7 breast): 15900 nM | GI50 (MDA-MB-231 breast): 1260 nM | TGI (MDA-MB-231 breast): 3040 nM | GI50 (MDA-MB-435): 2750 nM | TGI (MDA-MB-435): 13100 nM | GI50 (MDA-MB-468 breast): 1150 nM | TGI (MDA-MB-468 breast): 3140 nM | GI50 (MOLT-4 leukemia): 3780 nM | TGI (MOLT-4 leukemia): 56900 nM | GI50 (NCI-H226 lung): 1300 nM | TGI (NCI-H226 lung): 2880 nM | GI50 (NCI-H23 lung): 1660 nM | TGI (NCI-H23 lung): 4850 nM | GI50 (NCI-H460 lung): 383 nM | TGI (NCI-H460 lung): 1420 nM | GI50 (NCI-H522 lung): 2170 nM | TGI (NCI-H522 lung): 6790 nM | GI50 (NCI/ADR-RES ovarian): 1130 nM | TGI (NCI/ADR-RES ovarian): 3320 nM | GI50 (OVCAR-3 ovarian): 945 nM | TGI (OVCAR-3 ovarian): 2460 nM | GI50 (OVCAR-4 ovarian): 334 nM | TGI (OVCAR-4 ovarian): 1260 nM | GI50 (OVCAR-5 ovarian): 2470 nM | TGI (OVCAR-5 ovarian): 11200 nM | GI50 (OVCAR-8 ovarian): 1600 nM | TGI (OVCAR-8 ovarian): 3500 nM | GI50 (PC-3 prostate): 1830 nM | TGI (PC-3 prostate): 6280 nM | GI50 (RPMI-8226 leukemia): 2410 nM | TGI (RPMI-8226 leukemia): 21500 nM | GI50 (RXF 393 renal): 1700 nM | TGI (RXF 393 renal): 4420 nM | GI50 (SF-268 CNS): 1070 nM | TGI (SF-268 CNS): 4970 nM | GI50 (SF-295 CNS): 776 nM | TGI (SF-295 CNS): 2140 nM | GI50 (SF-539 CNS): 1660 nM | TGI (SF-539 CNS): 3400 nM | GI50 (SK-MEL-2 melanoma): 12900 nM | TGI (SK-MEL-2 melanoma): 26200 nM | GI50 (SK-MEL-28 melanoma): 4450 nM | TGI (SK-MEL-28 melanoma): 23600 nM | GI50 (SK-MEL-5 melanoma): 2490 nM | TGI (SK-MEL-5 melanoma): 9560 nM | GI50 (SK-OV-3 ovarian): 2260 nM | TGI (SK-OV-3 ovarian): 5490 nM | GI50 (SN12C renal): 1990 nM | TGI (SN12C renal): 4470 nM | GI50 (SNB-19 CNS): 1180 nM | TGI (SNB-19 CNS): 2580 nM | GI50 (SNB-75 CNS): 245 nM | TGI (SNB-75 CNS): 1420 nM | GI50 (SR leukemia): 6370 nM | TGI (SR leukemia): 29700 nM | GI50 (SW-620 colon): 1540 nM | TGI (SW-620 colon): 13400 nM | GI50 (T-47D breast): 2240 nM | TGI (T-47D breast): 8070 nM | GI50 (TK-10 renal): 1650 nM | TGI (TK-10 renal): 3340 nM | GI50 (U251 CNS): 368 nM | TGI (U251 CNS): 1440 nM | GI50 (UACC-257 melanoma): 13300 nM | TGI (UACC-257 melanoma): 79500 nM | GI50 (UACC-62 melanoma): 3920 nM | TGI (UACC-62 melanoma): 15200 nM | GI50 (UO-31 renal): 1830 nM | TGI (UO-31 renal): 4030 nM
